In patent US20260327263A1, “Anti-Bacterial Peptides” (priority 2023, published 2026):
≈ marks a conversion by molar mass, not a printed value. Where a SMILES comes first, the peptide text is derived from it. Where no end group is shown, it is not given here. [ ]: non-standard residue; d: D form. Bip = N[C@@H](Cc1ccc(-c2ccccc2)cc1)C(=O)O; 1Nal = N[C@@H](Cc1cccc2ccccc12)C(=O)O; 2Nal = N[C@@H](Cc1ccc2ccccc2c1)C(=O)O; Aib = CC(C)(N)C(=O)O

Key:
[1] = tested on: Pseudomonas aeruginosa (PA); test: Broth microdilution anti-bacterial assay (CLSI), Pseudomonas aeruginosa; assay type: cell-based, Pseudomonas aeruginosa (ATCC 14213); conditions: for MIC / MBC: PA; for MIC: overnight, 37° C., ≥99% inhibition; for MBC: ≥99% killing; for anti-bacterial activity (in words): PA and SA
Description: (§1) To evaluate their anti-bacterial potency, broth microdilution method as per the CLSI guidelines 1 was used. […] The anti-bacterial potency of the tested agents is quantified using minimum inhibitory concentration (MIC) and minimum bactericidal concentration (MBC). […] To obtain the MBC data, 1X, 2X and 4× MIC of the peptide variants were plated to obtain the number of viable colonies compared to the original inoculum.
(§2) Pseudomonas aeruginosa (ATCC 14213, PA), and methicillin resistant Staphylococcus aureus (BAA1717-USA 300, SA) were obtained from The American Type Culture Collection (ATCC).
(§3) Examination of the potency of modified short peptides against PA and SA strains was performed by using the broth microdilution protocol from the Clinical and Laboratory Standards Institute (CLSI) guidelines (CLSI 2012) as described. Briefly, five freshly plated bacteria colonies were grown in cation adjusted MH2 broth (BD Biosciences) in a shaker incubator at 37° C., 220 RPM. Cells were grown to an optical density (OD600) of ~0.2 measured using a Microplate Spectrophotometer (Molecular Devices Spectra Max Plus). 100 μL of microbial culture containing ~5×10^5 CFU/mL of bacteria in the respective broths were introduced into each well containing 100 μL of peptides and incubated overnight at 37° C. Next, to check the bactericidal effects, 100 μL from each well was transferred and spread on sterile MH2 agar plates. The plates were incubated overnight at 37° C. and the number of colonies forming units (CFU) were calculated the following day. Readings of bacteria grown in media without any treatments were normalized to 100% as media control. For the mixed infection study, three freshly plated bacteria colonies each from PA, SA and ST plates were grown together in cation adjusted MH2 broth and proceeded as described above.

[2] = tested on: Staphylococcus aureus (SA); test: Broth microdilution anti-bacterial assay (CLSI), Staphylococcus aureus; assay type: cell-based; conditions: SA; for MIC: overnight, 37° C., ≥99% inhibition; for MBC: ≥99% killing
Description: as §1, §2, §3

KKLLKKKVKLSKKALKLAQSL-NH2 [W7K]
MIC [1]: 12.5 µM
MBC [1]: 12.5 µM
MIC [2]: 12.5 µM
MBC [2]: 25 µM

CC(C)C[C@H](NC(=O)[C@H](CO)NC(=O)[C@H](CC(C)C)NC(=O)C(C)(C)NC(=O)[C@H](CC(C)C)NC(=O)[C@H](CCCCN)NC(=O)[C@H](CC(C)C)NC(=O)[C@H](C)NC(=O)[C@H](CCCCN)NC(=O)[C@H](CCCCN)NC(=O)[C@H](CO)NC(=O)[C@H](CC(C)C)NC(=O)[C@H](CCCCN)NC(=O)[C@H](CC(C)C)NC(=O)[C@H](Cc1c[nH]c2ccccc12)NC(=O)[C@H](CCCCN)NC(=O)[C@H](CCCCN)NC(=O)[C@H](CC(C)C)NC(=O)[C@H](CC(C)C)NC(=O)[C@H](CCCCN)NC(=O)[C@@H](N)CCCCN)C(N)=O [V8LQ19LA18Aib] (H-KKLLKKWLKLSKKALKL[Aib]LSL-NH2)
MIC [1]: 3.125 µM (≈ 7.7 µg/mL)
MBC [1]: 3.125 µM (≈ 7.7 µg/mL)
MIC [2]: 1.58 µM (≈ 3.89 µg/mL)
MBC [2]: 1.56 µM (≈ 3.84 µg/mL)

LKKWVKLSKKALKLAQSL-NH2 [E1AM2 N-3]
MIC [1]: 12.5 µM

KKLLKKWKKLSKKALKLAQSL-NH2 [V8K]
MIC [1]: 3.125 µM
MBC [1]: 3.126 µM
MIC [2]: 12.5 µM
MBC [2]: 12.5 µM

CC(C)C[C@@H](NC(=O)[C@@H](CO)NC(=O)[C@@H](CC(C)C)NC(=O)[C@@H](C)NC(=O)[C@@H](CC(C)C)NC(=O)[C@@H](CCCCN)NC(=O)[C@@H](CC(C)C)NC(=O)[C@@H](C)NC(=O)[C@@H](CCCCN)NC(=O)[C@@H](CCCCN)NC(=O)[C@@H](CO)NC(=O)[C@@H](CC(C)C)NC(=O)[C@@H](CCCCN)NC(=O)[C@@H](CC(C)C)NC(=O)[C@@H](Cc1c[nH]c2ccccc12)NC(=O)[C@@H](CCCCN)NC(=O)[C@@H](CCCCN)NC(=O)[C@@H](CC(C)C)NC(=O)[C@@H](CC(C)C)NC(=O)[C@@H](CCCCN)NC(=O)[C@H](N)CCCCN)C(N)=O [D-V8LQ19L] (H-[dK][dK][dL][dL][dK][dK][dW][dL][dK][dL][dS][dK][dK][dA][dL][dK][dL][dA][dL][dS][dL]-NH2)
anti-bacterial activity (in words) [1]: retains the strong anti-bacterial effects
MIC [1]: 3.125 µM (≈ 7.66 µg/mL)
MBC [1]: 3.125 µM (≈ 7.66 µg/mL)
MIC [2]: 3.125 µM (≈ 7.66 µg/mL)
MBC [2]: 3.125 µM (≈ 7.66 µg/mL)

KKLLKKWVKLSKKALKLAQS-NH2 [E1AM2 C-1]
MIC [1]: >25 µM

KKLLKKWVKLSKKALKLAQ-NH2 [E1AM2 C-2]
MIC [1]: 25 µM

KKLLKKWVKLSKKLLKLAQSL-NH2 [A14L]
MIC [1]: 12.5 µM
MBC [1]: 12.5 µM
MIC [2]: 6.25 µM
MBC [2]: 6.25 µM

CC(C)C[C@H](NC(=O)[C@H](CO)NC(=O)[C@H](CC(C)C)NC(=O)C(C)(C)NC(=O)[C@H](CC(C)C)NC(=O)[C@H](CCCCN)NC(=O)[C@H](CC(C)C)NC(=O)C(C)(C)NC(=O)[C@H](CCCCN)NC(=O)[C@H](CCCCN)NC(=O)[C@H](CO)NC(=O)[C@H](CC(C)C)NC(=O)[C@H](CCCCN)NC(=O)[C@H](CC(C)C)NC(=O)[C@H](Cc1c[nH]c2ccccc12)NC(=O)[C@H](CCCCN)NC(=O)[C@H](CCCCN)NC(=O)[C@H](CC(C)C)NC(=O)[C@H](CC(C)C)NC(=O)[C@H](CCCCN)NC(=O)[C@@H](N)CCCCN)C(N)=O [V8LQ19LA1418Aib] (H-KKLLKKWLKLSKK[Aib]LKL[Aib]LSL-NH2)
MIC [1]: 3.126 µM (≈ 7.75 µg/mL)
MBC [1]: 3.125 µM (≈ 7.74 µg/mL)
MIC [2]: 1.56 µM (≈ 3.87 µg/mL)
MBC [2]: 1.56 µM (≈ 3.87 µg/mL)

KKLLKKWVKLSKKALKLAKSL-NH2 [Q19K]
MIC [1]: 12.5 µM
MBC [1]: 25 µM
MIC [2]: 12.5 µM
MBC [2]: 25 µM

WVKLSKKALKLAQSL-NH2 [E1AM2 N-6]
MIC [1]: >25 µM

CC(C)C[C@H](NC(=O)[C@H](CO)NC(=O)[C@H](CC(C)C)NC(=O)[C@H](C)NC(=O)[C@H](CC(C)C)NC(=O)[C@H](CCCCN)NC(=O)[C@H](CC(C)C)NC(=O)[C@H](C)NC(=O)[C@H](CCCCN)NC(=O)[C@H](CCCCN)NC(=O)[C@H](CO)NC(=O)[C@H](CC(C)C)NC(=O)[C@H](CCCCN)NC(=O)[C@H](CC(C)C)NC(=O)[C@H](Cc1cccc2ccccc12)NC(=O)[C@H](CCCCN)NC(=O)[C@H](CCCCN)NC(=O)[C@H](CC(C)C)NC(=O)[C@H](CC(C)C)NC(=O)[C@H](CCCCN)NC(=O)[C@@H](N)CCCCN)C(N)=O [W71NalV8LQ19L] (H-KKLLKK[1Nal]LKLSKKALKLALSL-NH2)
MIC [1]: 3.125 µM (≈ 7.69 µg/mL)
MBC [1]: 3.125 µM (≈ 7.69 µg/mL)
MIC [2]: 1.56 µM (≈ 3.84 µg/mL)
MBC [2]: 1.56 µM (≈ 3.84 µg/mL)

KKLLKKWVKLSKKALK-NH2 [E1AM2 C-5]
MIC [1]: >25 µM

KKWVKLSKKALKLAQSL-NH2 [E1AM2 N-4]
MIC [1]: >25 µM

KKLLKKWVKLSKKALKLAQLL-NH2 [S20L]
MIC [1]: 6.25 µM
MBC [1]: 12.5 µM
MIC [2]: 6.25 µM
MBC [2]: 12.5 µM

KKLLKKWVKLSKKALKLA-NH2 [E1AM2 C-3]
MIC [1]: 6.25 µM

KKLLKKLLKLSKKALKLALSL-NH2 [W7LV8LQ19L]
MIC [1]: 3.125 µM
MBC [1]: 3.125 µM
MIC [2]: 1.58 µM
MBC [2]: 1.58 µM

KKLLKKWVKLSKKALKLAQKL-NH2 [S20K]
MIC [1]: 25 µM
MBC [1]: 25 µM
MIC [2]: 25 µM
MBC [2]: 25 µM

Ac-KKLLKKWVKLSKKALKLAQSL [Ac-E1AM2]
MIC [1]: 25 µM
MBC [1]: 25 µM

KKLLKKWLKLSKKALKLALS-NH2 [V8LQ19L C-1]
anti-bacterial activity (in words) [1]: strong potency
MIC [1]: 3.125 µM
MBC [1]: 3.125 µM
MIC [2]: 3.125 µM
MBC [2]: 3.125 µM

KKLLKKWVKLSKKALKLKQSL-NH2 [A18K]
MIC [1]: 12.5 µM
MBC [1]: 25 µM
MIC [2]: 12.5 µM
MBC [2]: 12.5 µM

LLKKWVKLSKKALKLAQSL-NH2 [E1AM2 N-2]
MIC [1]: 25 µM

Ac-KKLLKKWVKLSKKALKLAQSL-NH2 [Ac-E1AM2-NH2]
MIC [1]: 12.5 µM
MBC [1]: 12.5 µM

KKLLKKLVKLSKKALKLAQSL-NH2 [W7L]
anti-bacterial activity (in words) [1]: reduced MIC against PA
MIC [1]: 3.125 µM
MBC [1]: 3.125 µM
MIC [2]: 6.25 µM
MBC [2]: 6.25 µM

CC(C)C[C@H](NC(=O)[C@H](CO)NC(=O)[C@H](CC(C)C)NC(=O)[C@H](C)NC(=O)[C@H](CC(C)C)NC(=O)[C@H](CCCCN)NC(=O)[C@H](CC(C)C)NC(=O)[C@H](C)NC(=O)[C@H](CCCCN)NC(=O)[C@H](CCCCN)NC(=O)[C@H](CO)NC(=O)[C@H](CC(C)C)NC(=O)[C@H](CCCCN)NC(=O)[C@H](CC(C)C)NC(=O)[C@H](Cc1ccc2ccccc2c1)NC(=O)[C@H](CCCCN)NC(=O)[C@H](CCCCN)NC(=O)[C@H](CC(C)C)NC(=O)[C@H](CC(C)C)NC(=O)[C@H](CCCCN)NC(=O)[C@@H](N)CCCCN)C(N)=O [W72NalV8LQ19L] (H-KKLLKK[2Nal]LKLSKKALKLALSL-NH2)
MIC [1]: 1.56 µM (≈ 3.84 µg/mL)
MBC [1]: 1.66 µM (≈ 4.09 µg/mL)
MIC [2]: 1.56 µM (≈ 3.84 µg/mL)
MBC [2]: 1.56 µM (≈ 3.84 µg/mL)

KKLLKKWVKLSKKALKLLQSL-NH2 [A18L]
MIC [1]: 6.25 µM
MBC [1]: 6.25 µM
MIC [2]: 3.125 µM
MBC [2]: 3.125 µM

KKLLKKWVKLSKKAL-NH2 [E1AM2 C-6]
MIC [1]: >25 µM

KKLLKKWVKLLKKALKLAQSL-NH2 [S11L]
MIC [1]: 12.5 µM
MBC [1]: 12.5 µM
MIC [2]: 6.25 µM
MBC [2]: 6.25 µM

KKLLKKWVKLSKKKLKLAQSL-NH2 [A14K]
MIC [1]: 12.5 µM
MBC [1]: 12.5 µM
MIC [2]: 12.5 µM
MBC [2]: 12.5 µM

KWVKLSKKALKLAQSL-NH2 [E1AM2 N-5]
MIC [1]: >25 µM

CC(C)C[C@H](NC(=O)[C@H](CO)NC(=O)[C@H](CC(C)C)NC(=O)[C@H](C)NC(=O)[C@H](CC(C)C)NC(=O)[C@H](CCCCN)NC(=O)[C@H](CC(C)C)NC(=O)[C@H](C)NC(=O)[C@H](CCCCN)NC(=O)[C@H](CCCCN)NC(=O)[C@H](CO)NC(=O)[C@H](CC(C)C)NC(=O)[C@H](CCCCN)NC(=O)[C@H](CC(C)C)NC(=O)[C@H](Cc1ccc(-c2ccccc2)cc1)NC(=O)[C@H](CCCCN)NC(=O)[C@H](CCCCN)NC(=O)[C@H](CC(C)C)NC(=O)[C@H](CC(C)C)NC(=O)[C@H](CCCCN)NC(=O)[C@@H](N)CCCCN)C(N)=O [W7BipV8LQ19L] (H-KKLLKK[Bip]LKLSKKALKLALSL-NH2)
MIC [1]: 3.325 µM (≈ 8.27 µg/mL)
MBC [1]: 3.125 µM (≈ 7.77 µg/mL)
MIC [2]: 1.58 µM (≈ 3.93 µg/mL)
MBC [2]: 1.56 µM (≈ 3.88 µg/mL)

KLLKKWVKLSKKALKLAQSL-NH2 [E1AM2 N-1]
MIC [1]: 12.5 µM

KKLLKKWVKLSKKALKL-NH2 [E1AM2 C-4]
MIC [1]: >12.5 µM
